# Results published in patent publication US9877980B2, “Method and composition for treatment or prevention of type 2 diabetes and hyperlipidemia” (Chun-Ching Shih, priority 2016, dated 2018).
# System: epididymal adipocyte of HFD mice
# Test: Histology of epididymal white adipose tissue (adipocyte hypertrophy)
# Assay type: in vivo
# Settings: 4 weeks, three measurements
# Description: The following experiment was performed and approved by the guidelines of the Institutional Animal Care and Use Committee of Central Taiwan University of Science and Technology. The 4-week old male C57BL/6J mice (total amount n=63) were purchased from the National Laboratory Animal Breeding and Research Center (Taipei, Taiwan). After acclimatization for one week, all of the mice were divided randomly into the control (CON) group and the high-fat diet (HFD) group. For the following 12 weeks, the CON group (n=9) was kept on a low-fat diet (Diet 12450B, Research Diets, Inc., New Brunswick, N.J., USA), while the HFD group (n=54) was exposed to a high-fat diet (Diet 12451, Research Diets, New Brunswick, N.J., USA). The low-fat diet was composed of protein 20%, carbohydrate 70% and fat 10%, whereas the high-fat diet was composed of protein 20%, carbohydrate 35%, and fat 45% (of total energy, % kcal). After HFD exposure for 8 weeks, the HFD group was further randomly subdivided into 6 groups (n=9 per group) to receive different treatments by oral gavage once daily for four weeks and on HFD. […] The HF+B1, HF+B2, and […] are collectively termed BB-treated HFD groups in the following examples. The CON mice were administered vehicle. After dosing for 4 weeks, the mice were given no food at night and sacrificed after 12 h of fasting on the next day. All of the individual tissues were collected and weighed, and portions were instantly frozen using liquid nitrogen and kept at −80° C. for subsequent target gene analysis. Blood samples (0.8 mL) were collected for analysis of blood parameters.
# Small pieces of epididymal white adipose tissue and liver tissue were fixed with formalin (200 g/kg) neutral buffered solution and embedded in paraffin. Sections of 8 μm […] were cut and stained with hematoxylin and eosin. For microscopic examination, a microscope (Leica, DM2500) was used, and the images were taken using a Leica Digital Camera (DFC-425-C).
# Adipocyte hypertrophy, the pathological enlargement of adipocytes, is often found in subjects with type 2 diabetes and hyperlipidemia. To verify the therapeutic effect of the compound of formula I on adipocyte hypertrophy, morphology of the EWAT for the CON group and the BB-treated HFD groups was examined. Micrographs of the EWAT sections for each group were analyzed to determine the mean area of an epididymal adipocyte using the software ImageJ.
smiles,measurement,setting,value
"OCC1O[C@@H](O[C@@H]2Cc3c(O)cc(O)cc3O[C@@H]2c2ccc(O)c(O)c2)C(O)C(O)[C@@H]1O (single isomer, unassigned; (-)) [compound of formula I, (−)-epicatechin-3-O-β-D-allopyranoside]",mean area of an epididymal adipocyte,10 mg/kg/day oral gavage,6882.8±102.2 μm^2
same,mean area of an epididymal adipocyte,20 mg/kg/day oral gavage,6475.5±102.6 μm^2
same,mean area of an epididymal adipocyte,40 mg/kg/day oral gavage,6192.7±100.7 μm^2
